This passage reports Activity results from ChEMBL document CHEMBL4052608, “Hes1-Binding Compounds Isolated by Target Protein Oriented Natural Products Isolation (TPO-NAPI)” (2017).

The source made the active and inactive calls. The rule behind the calls is not given here.

For experiment [1], the system named is MEB5. As to the kind of experiment: Induction of neuronal differention in mouse MEB5 neurospheres at 100 uM after 4 days by DAPI dye-based fluorescence confocal laser scaning microscopic analysis. The format is functional, cell-based.
Experiment [2] concerns MEB5. Briefly: Induction of neuronal differention in mouse MEB5 neurospheres at 10 uM after 4 days by DAPI dye-based fluorescence confocal laser scaning microscopic analysis. The format is functional.
Experiment [3] deals with MEB5. As to the kind of experiment: Increase in neuronal differention in mouse MEB5 neurospheres at 10 uM after 4 days by DAPI dye-based fluorescence confocal laser scaning microscopic analysis. The format is functional.
Experiment [4] has as its target T1, Transcription factor HES-1 (Rattus norvegicus) (UniProt Q04666).
T1 sequence (whole entry): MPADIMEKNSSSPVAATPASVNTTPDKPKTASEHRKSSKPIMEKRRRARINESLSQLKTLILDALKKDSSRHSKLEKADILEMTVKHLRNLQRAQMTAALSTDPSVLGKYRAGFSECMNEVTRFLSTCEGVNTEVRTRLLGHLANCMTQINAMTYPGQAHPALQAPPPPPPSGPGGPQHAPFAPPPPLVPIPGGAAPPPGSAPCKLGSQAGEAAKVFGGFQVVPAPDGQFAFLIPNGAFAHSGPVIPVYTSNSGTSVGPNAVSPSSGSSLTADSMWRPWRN
Briefly: Binding affinity to rat GST-tagged truncated HES1 (47 to 281 residues) expressed in Escherichia coli JM109 after 2 hrs by HPLC based bead assay.

Experiment [5] concerns the target T1, Transcription factor HES-1 (Rattus norvegicus). Briefly: Binding affinity to rat GST-tagged truncated HES1 (1 to 95 residues) expressed in Escherichia coli JM109 after 2 hrs by HPLC based bead assay.
The target is the same in experiment [6]. As to the kind of experiment: Binding affinity to rat GST-tagged truncated HES1 (151 to 281 residues) expressed in Escherichia coli JM109 after 2 hrs by HPLC based bead assay.
For experiment [7] the target is unchanged. As to the kind of experiment: Binding affinity to rat GST-tagged truncated HES1 (47 to 156 residues) expressed in Escherichia coli JM109 after 2 hrs by HPLC based bead assay.

For `CCCC(CCC)C(=O)O`, the result in experiment [1] was Active.

Turning to `C/C=C/C=C/C=C/[C@@H]1NCC[C@@H](O)[C@H]1C`, the Activity in experiment [2] was found to be 35%; in experiment [3] it was 34%.

Take `CC1=C\C=C\C=C\CC(C)NC(=O)/C=C/C=C/C=C/C(C)C(O)C(O)C(O)CC(O)/C=C\C=C\1` (centres undefined): the values for the Activity in experiment [2] and in experiment [3] were 30% and 17%, respectively. For the same compound, the result in experiment [4], in experiment [5], in experiment [6] and in experiment [7] was Active.
